# Results published in patent US7655620B2, “Use of one or more metal carriers to selectively kill mammalian cells” (Cancure Laboratories, LLC, priority 2005, dated 2010).
# Entries after “also recorded” stand apart in the source; their conditions may differ.
# How the values were obtained:
# cancer cells = assay: Killing of cancer cells by dithiocarbamates in the absence or presence of cadmium/zinc; type: cell-based; conditions: for effectiveness in killing cancer cells in comparison to CCK3: 10-50 μM, absence or presence of 20 μM CdCl2/ZnCl2; for induction of cell death in the presence of cadmium or zinc: in vitro
# Protocol: A large number of dithiocarbamates can be synthesized that, similar to 3-aminopropylpiperidine-1-carbodithioate (CCK3), contain a free amino group. Several of these compounds were synthesized and tested (in the range of 10-50 μM concentration) on cancer cells in the absence or presence of 20 μM CdCl2/ZnCl2 in comparison to CCK3, as follows. […] Similarly, 1-{[(3-aminopropyl)thio]carbonothiol}pyrrolidine-2-carboxilic acid.HCl salt (for structure see FIG. 1) was ineffective both in the absence and presence of cadmium/zinc. The last two compounds may be ineffective because the presence of carboxyl group may interfere with proper binding of cadmium and zinc to the molecule. 3-Aminopropylpyrrolidine-1-carbodithionate. […] From this list, it appears that not every free amino group-containing dithiocarbamate can effectively kill cells in the presence of cadmium and zinc. In some of these cases the metal atom may bind to the dithiocarbamate molecule too strongly (covalently), not allowing dissociation of the metal from the molecule once inside the cell. After comparison of the above compounds with the effects of CCK3, further experiments were principally carried out with PDC and CCK3. These are representative compounds that can be the most effectively and most economically used when either no further modification of the molecule is required (PDC) or when modification with a targeting moiety is required (CCK3).
# MDA-MB-231 cells = assay: [3H]thymidine DNA synthesis; type: cell-based, human; conditions: 60 min treatment, 10 μM cadmium, alone or in combination; [3H]thymidine during last 30 min
# Protocol: (§1) Biochem. Biophys. Res. Commun. 213, 980-985]. […] Survival values obtained with untreated cells were considered 100%. […] Cancer Res. 47, 936-942].
# (§2) MDA-MB-231 cells were cultured in Leibovitz's L-15 medium and 10% fetal bovine serum; the medium was changed 2 hours prior to treatments. For the treatments, cells were incubated in triplicate in 12-well plates. A typical experiment with these cells is illustrated in FIG. 3. The cells were untreated (FIG. 3A) or treated with 5 μM CCK3 (FIG. 3B), 10 μM cadmium (FIG. 3C), or 5 μM CCK3+10 μM cadmium (FIG. 3D) for 60 min in 10% serum-containing medium. […] In some experiments, cells were also incubated with [^3H]thymidine (1 μCi/ml) during the last 30 min of treatment to determine DNA synthesis. Cadmium and […] decreased DNA synthesis by 6 and 12%, while in combination they had 100% inhibitory effect.
# (§3) The cells were cultured as described in Example 4. The cadmium/MT contained 5 cadmium atoms per one MT molecule while zinc/MT contained 5 zinc atoms per one MT molecule. […] Thus, in this cell line cadmium/MT+PDC killed cells more rapidly and efficiently compared to the same amount of zinc/MT+PDC.
# MCF-7 cells [1] = assay: Trypan blue exclusion assay; type: cell-based, human; conditions: 20 μM CCK3, 120 μg/ml cadmium/MT, alone or combined; 8 hours
# Protocol: as §1
# (§4) The cells were cultured as described in Example 4.
# [2] = test system: MDA-MB-231 human mammary gland adenocarcinoma cells; assay: Cell death judged from cell morphology (photographs); type: cell-based; conditions: 5 μM CCK3, 10 μM cadmium, alone or in combination; 60 min; 10% serum-containing medium
# Protocol: as §2, §3
# [3] = test system: cancer cells (CaOV-3, T47D and PC-3); assay: MTT assay / killing, statements over several cancer cell lines (metal/MTLP-25); type: cell-based, human; conditions: 20 μM CCK3, 100 μg/ml metal/MTLP-25, 24 hours; summary of Table 1
# Protocol: The concentration range for these cadmium/MTLP-25 effects in some embodiments is 10-600 μg/ml, while in other embodiments, the concentration range is 50-200 μg/ml. Therapeutically effective concentrations of metal/MTLP-25 and CCK3 or PDC exert maximal effects on tumors without causing significant toxicity.
# PC-3 human prostate adenocarcinoma cells were maintained and treated in Ham's F12K medium containing 7% fetal bovine serum. The CaOV-3 human ovarian adenocarcinoma cells were maintained and treated in Dulbecco's modified Eagle's medium containing 4 mM L-glutamine, 1.5 g/L sodium bicarbonate, 4.5 g/L glucose, 1 mM sodium pyruvate and 10% fetal bovine serum. T47D were maintained and treated in RPMI 1640 cell culture medium (see Gibco Catalogue) supplied with 2 mM L-glutamine, 10 mM Hepes, 1 mM sodium pyruvate, 4.5 g/L glucose, 1.5 g/L sodium bicarbonate, 0.2 I.U. bovine insulin/ml, and 10% fetal bovine serum. The cells were incubated in 96-well plates in the medium described above for 24 hours in the absence or presence of 20 μM CCK3 and/or 100 μg/ml of cadmium/MTLP-25 or 100 μg/ml of zinc/MTLP-25 as indicated in Table 1. After the treatment period, the MTT assay was used to determine the relative cell number of viable cells. Errors are expressed as S.D. (n=8 for each treatment).
# [4] = test system: various cancer and human normal 966 SK skin fibroblasts; assay: MTT assay, statements over all cell lines of Example 6; type: cell-based; conditions: CCK3 10 μM, cadmium/MT 60 μg/ml, alone or combined, 24 hour
# Protocol: as §1
# MCF-7 estrogen receptor positive human breast carcinoma cells and CaOV-3 human ovarian adenocarcinoma cells were grown in Dulbecco's modified Eagle's medium containing 4 mM L-glutamine, 1.5 g/L sodium bicarbonate, 4.5 g/L glucose, 1 mM sodium pyruvate and 10% fetal bovine serum. T47D human mammary gland ductal carcinoma cells and ZR-75-1 estrogen receptor positive human mammary gland ductal carcinoma cells were cultured in RPMI 1640 medium as indicated above. MB-468 and MB-231 human mammary gland adenocarcinoma cells were maintained in Leibovitz's L-15 medium as described above. AN3CA human endometrial adenocarcinoma and 966 SK normal human skin fibroblasts were cultured in Eagles's minimum essential medium supplemented with 0.1 mM non-essential amino acids and 10% fetal bovine serum. The preparation of MT (from Sigma-Aldrich, Inc.) used in this experiment contained about 4 ions of cadmium and only about 0.3 ions of zinc per MT molecule. […] The MTT assay was used for the determination of relative cell numbers. Data are illustrated in FIG. 4 as rates of growth inhibition (maximum inhibition=100%) in comparison to values without treatment. The error bars indicate S.D. (n=8). […]
# T47D cells = assay: [3H]thymidine DNA synthesis; type: cell-based, human; conditions: 5 μM CCK3, 10 μM cadmium, alone or in combination; 4 hours; [3H]thymidine during last 30 min
# Protocol: as §1
# T47D Cells were cultured in RPMI 1640 cell culture medium (see Gibco Catalogue) supplied with 2 mM L-glutamine, 10 mM Hepes, 1 mM sodium pyruvate, 4.5 g/L glucose, 1.5 g/L sodium bicarbonate, 0.2 I.U. bovine insulin/ml, and 10% fetal bovine serum. The medium was changed for fresh 10% serum-containing medium 2 hours prior to treatments. For the treatments, the cells were incubated in triplicate in 12-well plates. The cells were untreated (FIG. 2A) or treated with 5 μM CCK3 alone (FIG. 2B), 10 μM cadmium alone (FIG. 2C), or 5 μM CCK3 and 10 μM cadmium in combination (FIG. 2D) for 4 hours in 10% serum-containing medium when the photographs were taken. […] Finally, cells were incubated with [^3H]thymidine (1 μCi/ml) during the last 30 min of treatment to determine DNA synthesis. Cadmium and CCK3 decreased DNA synthesis by 13 and 8% respectively, while in combination they had practically 100% inhibitory effect.
# [5] = test system: ZR-75-1 human breast cancer cells; assay: Cell death judged from cell morphology (photographs); type: cell-based
# Protocol: ZR-75-1 cells were cultured in triplicate in 12-well plates in the medium described in Example 4. The cadmium/MT contained 5 atoms of cadmium and 1 atom of zinc, while the zinc/MT contained 5 atoms of zinc and 1 atom of cadmium per one MT molecule. ZR-75-1 cells were incubated in 10% serum-containing medium for 24 h in the absence (FIG. […] 6D), 240 μg/ml of zinc/MT (FIG. […] 6F).
# (§5) Cells were cultured in triplicate in 12-well plates as described in Example 4. The ratio of cadmium and zinc in cadmium/MT was 5:1 per one MT molecule. ZR-75-1 cells were incubated in 10% serum-containing medium for 8 hours in the absence (FIG. 7A) or presence of 20 μM CCK3 (FIG. 7B), 120 μg/ml of cadmium/MT (FIG. 7C), or 120 μg/ml of cadmium/MT+20 μM CCK3 (FIG. 7D).
# [6] = test system: T47D human mammary gland ductal carcinoma cells; assay: as above; type: cell-based; conditions: 5 μM CCK3, 10 μM cadmium, alone or in combination; 4 hours; 10% serum-containing medium
# MCF-7 cells [7] = assay: as above; type: cell-based, human; conditions: 20 μM CCK3, 120 μg/ml cadmium/MT, alone or combined; 8 hours; 10% serum
# Protocol: as §4
# ZR-75-1 cells = test system: ZR-75-1 cells
# Protocol: Biochem. Biophys. Res. Commun. […] Survival values obtained with untreated cells were considered 100%.
# ZR-75-1 cells were cultured in triplicate in 12-well plates in the medium described in Example 4. The cadmium/MT contained 5 atoms of cadmium and 1 atom of zinc, while the zinc/MT contained 5 atoms of zinc and 1 atom of cadmium per one MT molecule. ZR-75-1 cells were incubated in 10% serum-containing medium for 24 h in the absence (FIG. 6A) or presence of 15 μM CCK3 (FIG. 6B), 60 μg/ml of cadmium/MT (FIG. 6C), 60 μg/ml of cadmium/MT+15 μM CCK3 (FIG. 6D), 240 μg/ml of zinc/MT (FIG. 6E), or 240 μg/ml of zinc/MT+15 μM CCK3 (FIG. 6F).
# as §5
compound,measurement,setting,value
Cl.NCCCSC(=S)N1CCCC1C(=O)O (stereo not shown) [1-{[(3-aminopropyl)thio]carbonothiol}pyrrolidine-2-carboxilic acid.HCl salt],effectiveness in killing cancer cells in comparison to CCK3,cancer cells,ineffective
NCCCSC(=S)N1CCCCC1C(=O)O (stereo not shown) [1-{[(3-aminopropyl)thio]carbonothioyl}piperidine-2-carboxilic acid],effectiveness in killing cancer cells in comparison to CCK3,cancer cells,not effective at all
"CCN(CC)C(=S)S [diethyldithocarbamate, reference compound]",induction of cell death in the presence of cadmium or zinc,cancer cells,as effective as CCK3
"S=C(S)N1CCCC1 [PDC, pyrrolidinecarbodithioic acid, reference compound]",decrease of DNA synthesis,MDA-MB-231 cells,12%
"Cl.NCCCSC(=S)N1CCCCC1 [CCK3, 3-aminopropylpiperidine-1-carbodithioate.HCl salt]",cells killed (trypan blue exclusion assay),MCF-7 cells [1],practically no effects on viability
same,cell death indicated by cell morphology (cell rounding),[2],no effects on cell morphology
same,reduction of the viability of cancer cells,[3],no effects
same,cell viability (FIG. 4),[4],significantly smaller than the combined effects
same,induction of cell death in the presence of cadmium or zinc,cancer cells,retains its ability to carry metals inside the cells resulting in cell death; also recorded: killed the cells
same,decrease of DNA synthesis,T47D cells,8%
same,cell death indicated by cell morphology,"[5]; 20 μM CCK3, 120 μg/ml cadmium/MT, alone or combined, 8 hours, 10% serum",failed to significantly alter cell morphology
same,cell death indicated by cell morphology (FIG. 6 legend),"[5]; CCK3 10 μM, cadmium/MT 60 μg/ml, zinc/MT 240 μg/ml, alone or MT+CCK3, 24 hours",failed to significantly alter cell morphology
same,cell death indicated by cell morphology (cell rounding),[6],no effects on cell morphology
same,cell death indicated by cell morphology,MCF-7 cells [7],failed to significantly alter cell morphology
same,cells killed (trypan blue exclusion assay),"ZR-75-1 cells; 15 μM CCK3, 60 μg/ml cadmium/MT, 240 μg/ml zinc/MT, alone or MT+CCK3, 24 h",practically no effects
same,cells with decreased viability / killed (trypan blue exclusion assay),"ZR-75-1 cells; 20 μM CCK3, 120 μg/ml cadmium/MT, alone or combined, 8 hours",16%
"C[N+](C)(C)CCOC(=S)SCCCN.[Cl-] [2({[(3-aminopropyl)thio]carbonothionyl}oxy)-N,N,N-trimethylethanolamine-chloride]",effectiveness in killing cancer cells in comparison to CCK3,cancer cells,less effective than CCK3
cadmium,cell death indicated by cell morphology (cell rounding),[2],no effects on cell morphology
same,decrease of DNA synthesis,MDA-MB-231 cells,6%
same,decrease of DNA synthesis,T47D cells,13%
same,cell death indicated by cell morphology (cell rounding),[6],no effects on cell morphology
Cl.NCCCSC(=S)N1CCCC1 [3-Aminopropylpyrrolidine-1-carbodithionate. HCl salt],effectiveness in killing cancer cells in comparison to CCK3,cancer cells,significantly less effective than CCK3
